Entries after “also recorded” stand apart in the source; their conditions may differ.
Columns and labels:
[1] = system: sphingomyelin (EL-4 nuclei-free supernate); assay: Sphingomyelin levels in EL-4 cell-free system; assay type: biochemical, murine; conditions: IL-1β, n=10, p<0.005 vs. control
Procedure: (§1) Thereafter, supernates (300 μg incubation^-1 in 25 μl ) were added to a reaction mixture (total volume 250 μl ) as described in FIG. 14. For studies measuring lipid levels, incubations were stopped by extraction of lipids into an organic phase and resolved as described in FIGS. 12A, 12B and 13. For studies measuring kinase activity, incubations contained EGFR peptide and [^32 P]ATP, and phosphorylated peptide was quantified as described in FIG. 14. Background activity was subtracted from each point. Values (mean) represent data from two experiments for sphingomyelin performed in triplicate, three experiments for ceramide performed in triplicate, and five experiments for ceramide-activated protein kinase activity performed in duplicate.
(§2) Early kinetics of activation of a potential signaling system provide some support that the pathway might be involved in the signaling process. However, signal transduction pathways are highly regulated and often interrelated (70). […] To provide additional support for tight coupling of the sphingomyelin pathway to activation of the IL-1β receptor, studies were performed with subcellular fractions derived from EL-4 cells. […] These effects were quantitatively similar to those determined in the intact cells.

[2] = system: ceramide (EL-4 nuclei-free supernate); assay: Ceramide levels in EL-4 cell-free system; assay type: biochemical, murine; conditions: IL-1β, n=6, p<0.005 vs. control
Procedure: as §1, §2

[3] = system: proline-directed protein kinase activities other than ceramide-activated protein; assay: Cytosolic kinase activity toward EGFR peptide in EL-4 cells; assay type: cell-based, murine
[4] = system: EL-4 cells; assay: Sphingomyelin levels in intact EL-4 cells; assay type: cell-based, murine
Procedure: (§3) Time course (FIG. 12A) and dose response (FIG. 12B). Cells were grown to growth arrest (1-1.5×10^6 cells ml^-1) in DME/Ham's F12 medium (1:1, v/v) containing 10% horse serum and for 48 hours [^3 H]choline (1 μCi ml^-1). On the day of an experiment, cells were resuspended back into the same medium at 10×10^6 cells ml^-1 and stimulated with 40 ng ml^-1 IL-1β for the indicated times (FIG. 12A) or for 30 minutes with increasing concentrations of IL-1β (FIG. 12B). Human IL-1β may be obtained using methods well knownto those skilled in the art. Reactions were terminated with CHCl3 :CH3 OH:HCl (100:100:1) containing 10 mM EDTA (82). Lipids in the organic phase extract were dried under N2 and subjected to mild alkaline hydrolysis (0.1M methanolic KOH for 1 hour at 37° C.) to remove glycerophospholipids. Spingomyelin was resolved by thin-layer chromatography (TLC) using CHCl3 :CH3 OH:CH3 COOH:H2 O (60:30:8:5) as solvent, identified by iodine vapor staining, and quantified by liquid scintillation spectrometry. As previously reported, the use of [^3 H]choline as a measure of sphingomyelin content was validated by simultaneous phospholipid phosphorus measurements (62). Each value represents the mean ± SEM of triplicate determinations from four experiments in (FIG. 12A), and one representative of four similar studies performed in triplicate in (FIG. 12B).
The murine thymoma EL-4 cell line is a well-defined IL-1 responsive cell line that expresses functional IL-1 receptors (61, 62). Upon stimulation with IL-1, these cells up-regulate the IL-2 receptor and secrete IL-2 (62). Initial studies were designed to investigate the effects of IL-1β on cellular sphingomyelin content. Cells, grown in Dulbecco's Modified Eagle's (DME)/Ham's F-12 medium containing 10% horse serum and [^3 H]choline (1 μCi ml^-1), were resuspended back into the same medium at 10×10^6 cells ml^-1 and stimulated with IL-1β. IL-1β is commercially available.

[5] = system: ceramide-activated protein kinase; assay: Ceramide-activated protein kinase activity in EL-4 cell-free system; assay type: biochemical, murine; conditions: IL-1β
Procedure: as §1, §2

[6] = system: protein kinase C; assay: Protein kinase C activity by phosphorylation of lysine-rich histone in EL-4 cells; assay type: cell-based, murine; conditions: membrane and cytosolic fractions
[7] = system: EL-4 cells; assay: Ceramide levels in intact EL-4 cells; assay type: cell-based, murine
Procedure: as §3
Cells were stimulated as in FIGS. 12A and 12B with IL-1β (40 ng ml^-1) and ceramide contained within the organic phase extract quantified enzymatically using the E. coli diacylglycerol kinase reaction (57). Lipids were resolved by TLC using CHCl3 :CH3 OH:CH3 COOH (65/15/5) as solvent, autoradiographed and quantified by liquid scintillation spectrometry. Each value represents the mean ± SEM of triplicate determinations from 10 experiments.

[8] = system: EL-4 cells; assay: Phosphatidylcholine content in EL-4 cells; assay type: cell-based, murine; conditions: IL-1β
[9] = system: EL4 cells; conditions: 24 h
[10] = system: ceramide-activated protein kinase
Procedure: Homogenates were centrifuged at 500×g for 5 minutes to remove nuclei and at 200,000×g for 30 minutes to prepare microsomal membranes. Membranes were resuspended into homogenizing buffer (2.2 μg membrane protein μl^-1). For assay of kinase activity, the reaction mixture contained 20 μl of microsomal membrane, 40 μl EGFR peptide (4 mg ml^-1 in 25 mM Hepes, pH 7.4) and 100 μl buffer (50 mM HEPES, pH 7.4, 20 mM MgCl2) (40). Phosphorylation was initiated at 22° C. by addition of 40 μl [γ-^32 P] ATP (100 μM final concentration) and terminated at the indicated times by addition of 40 μl of 0.5M ATP in 90% formic acid. Phosphorylated peptide was eluted from a C18 Sep pak cartridge (Millipore), lyophilized, and resolved by C18 reverse phase HPLC using a linear gradient of acetonitrile. […] All assays were performed under conditions determined as linear for time and enzyme concentration. Enzyme activity was determined from the percent conversion of substrate to product and the specific radioactivity of [γ-^32 P] ATP. […] Values (mean ± range) represent duplicate determinations from two experiments.
Activity was measured by the transfer of ^32 P from the γ-position of ATP to EGFR peptide (AA 663-681 of the EGFR). The effect of IL-1β on kinase activity was determined using microsomal membranes derived from cells stimulated with IL-1β.

[11] = system: human natural killer-like cell line, YT; assay: Ceramide generation in YT cells; assay type: cell-based; conditions: preliminary studies

IL-1β: Human IL-1β
reduction in sphingomyelin content (in words) [1]: rapid reduction in sphingomyelin content; also recorded: detected at i minute | increase in ceramide content (in words) [2]: quantitative increase in ceramide content; also recorded: detected at i minute | cytosolic kinase activity (in words) [3]: not enhanced | sphingomyelin content after IL-1β ([4]; 40 ng ml^-1, 30 minutes, baseline 800±14, mean ± SEM, p<0.005): 648±16 pmol 10^6 cells^-1 | time at which sphingomyelin reduction was detectable ([4]; IL-1β 40 ng ml^-1): ≤ 2 min | concentration for maximal effect, sphingomyelin ([4]; IL-1β, 30 minutes): 10 ng/mL | effective concentration, sphingomyelin ([4]; IL-1β, 30 minutes): 0.01 ng/mL | effective dose (ED50), sphingomyelin hydrolysis ([4]; IL-1β, 30 minutes): ≈ 2 ng ml^-1 | effect on sphingomyelin (in words) ([4]; intact EL-4): rapid reduction in sphingomyelin | ceramide-activated protein kinase activity (in words) [5]: Ceramide-activated protein kinase activity also increased | protein kinase C activity (in words) [6]: not enhanced in either membrane or cytosolic fractions | ceramide response (in words) ([7]; EL-4, maximally effective concentrations (n=5), SMase 1×10^-3 U ml^-1): elevation in ceramide levels | ceramide content ([7]; IL-1β, 2 minutes, from 360, p<0.005): 403 pmol 10^6 cells^-1 | maximum ceramide content ([7]; IL-1β, 15 minutes, from 360): 450 pmol 10^6 cells^-1 | time at which increase in ceramide content was evident ([7]; IL-1β, n=4): ≤ 30 s | phosphatidylcholine content [8]: unchanged | IL-2 secretion in combination with TPA (in words) [9]: stimulated secretion maximally | IL-2 secretion, ±TPA ([9]; Table I, TPA 20 ng ml^-1, mean ± range, nd = not detectable): 261 ± 2 | kinase activity after IL-1β ([10]; 10 ng ml^-1, 2 minutes, from 5): 11 pmol per minute per milligram (pmol min^-1 mg^-1) | concentration for maximal effect, kinase activity ([10]; IL-1β): 10 ng/mL | effective concentration, kinase activity ([10]; IL-1β): 0.03 ng/mL | effective dose (ED50), kinase activity ([10]; IL-1β): ≈ 2 ng ml^-1 | time at which increase in kinase activity was detectable ([10]; IL-1β 10 ng ml^-1): 30 s | increase in kinase activity ([10]; IL-1β 10 ng ml^-1, 2 minutes): 2.1 -fold of control | time to maximal kinase activity ([10]; IL-1β 10 ng ml^-1, p<0.005): 2 min | generation of ceramide in YT cells [11]: induces rapid generation of ceramide
